Here are results for 59 compounds from patent US20240124445A1, “BENZENE RING COMPOUND AND USE THEREOF” (NANJING SHIJIANG MEDICINE TECHNOLOGY CO., LTD, priority 2020, published 2024).

SMILES strings stand for the structures.

The test system of the first experiment is NCI-H82 cell. Nature of the experiment: Cell viability (Promega CellTiter-Glo) of NCI-H82 cell. Particulars: Homo sapiens, NCI-H82. The experiment is classed as cell-based. The method, then:
Cell viability was detected using the Promega CellTiter-Glo kit, the kit reflected cell viability by directly measuring intracellular ATP content. Small cell lung cancer cell NCI-H82 (ATCC, No. HTB-175) was cultured in 10% fetal bovine serum-containing RPMI1640 medium (+P/S).
Cell viability was detected using the Promega CellTiter-Glo kit, the kit reflected cell viability by directly measuring intracellular ATP content.
Daoy cell was cultured in 10% fetal bovine serum-containing DMEM medium (+P/S), and NCI-H82 cell was cultured in 10% fetal bovine serum-containing RPMI1640 medium (+P/S).
Cell viability was detected using the Promega CellTiter-Glo kit, the kit reflected cell viability by directly measuring intracellular ATP content. In the experiment, the IC50 value of different compounds on different tumor cell lines was detected to determine cell lines that were sensitive or insensitive to different compounds.
Tumor cells were cultured in 10% FBS-containing medium (+p/s), and incubated for 3 h or the following day, then the gradient diluted compound was added. After 3 days of culture, the relevant IC50 (50% inhibiting concentration) was measured. The name, source and culture conditions of each tumor cell line were as follows:
Cell line NCI-H82 (ATCC, No. HTB-175) was cultured in 10% fetal bovine serum-containing RPMI1640 medium (+P/S).
Background: ATP-based viability assays read luminescence as a measure of living cells.
For `O=C(C[n+]1ccc2cc(Cc3ccccc3)[nH]c2c1)c1ccc(Cl)cc1` [AB24828A], the IC50 – broadly, the concentration that inhibits the measured activity by half – is 5790 nM. `O=C(C[n+]1ccc2c(Cc3ccccc3)c[nH]c2c1)c1ccc([N+](=O)[O-])cc1` [AB24863]: it took 3610 nM to reach half-maximal inhibition (IC50).

Compound `O=C(C[n+]1ccc2cc(-c3ccccc3)[nH]c2c1)c1ccc(Cl)cc1` [AB24831A] registered an IC50 of 5410 nM.

`O=C(C[n+]1ccc2c(Cc3ccccc3)c[nH]c2c1)c1ccc(Cl)cc1` [AB24835A] yielded an IC50 of 2750 nM. Same read-out and setting: under `Cc1ccc(C(=O)C[n+]2ccc3ccn(Cc4ccccc4)c3c2)cc1` [AB24945] stands 4220 nM; under `O=C(C[n+]1ccc2[nH]c(Cc3ccccc3)cc2c1)c1ccc(Cl)cc1` [AB24827A], 2890 nM.

Staying with this experiment, now noted: Homo sapiens; NCI-H82 cell, Table 1; read-out: IC50.
Turning to `CC(c1ccccc1)n1ccc2c[n+](C3CCc4ccc(Cl)cc4C3=O)ccc21` (centres unmarked) [AB27165], the IC50 was 410 nM. For `O=C(C[n+]1ccc2c(Cc3ccccc3)c[nH]c2c1)c1ccc(C(F)(F)F)cc1` [AB27106], the IC50 was found to be 1620 nM. Same read-out and setting: under `O=C(C[n+]1ccc2c(ccn2Cc2ccccc2)c1)c1cccc([N+](=O)[O-])c1` [AB24888] stands 850 nM. Same read-out and setting: next, `O=C(C[n+]1ccc2c(c1)CCC(c1ccccc1)N2)c1ccc(Cl)cc1` (centres unmarked) [AB24838]: 710 nM; `O=C1c2ncccc2CCC1[n+]1ccc(NCc2ccccc2)cc1` (centres unmarked) [AB24923]: 6850 nM; `Cc1ccc(C(=O)C[n+]2ccc3c(Cc4ccccc4)c[nH]c3c2)cc1` [AB24859]: 2290 nM.

`O=C1c2cc(OC(F)(F)F)ccc2CCC1[n+]1ccc2c(ccn2C2CC2)c1` (centres unmarked) [AB27158]: the IC50 was 550 nM. The same measure, in the same setting: under `Nc1cccc(C(=O)C[n+]2ccc(NCc3ccccc3)cc2)c1` [AB24983] stands 3400 nM. Same read-out and setting: under `CCn1ccc2c[n+](C3CCc4ccc(OC(F)(F)F)cc4C3=O)ccc21` (centres unmarked) [AB27155] stands 650 nM; under `CC(c1ccccc1)n1ccc2c[n+](C3CCc4ccc(C(F)(F)F)cc4C3=O)ccc21` (centres unmarked) [AB27161], 280 nM; under `CCn1ccc2c[n+](C3CCc4ccc(C(F)(F)F)cc4C3=O)ccc21` (centres unmarked) [AB27149], 1980 nM. In the case of `O=C(Nc1ccc([N+](=O)[O-])cc1)c1ccc(NCc2ccccc2)cc1` [AB24883], the IC50 came to 6370 nM. The same measure, in the same setting: next, `O=C(C[n+]1ccc2c(ccn2Cc2ccccc2)c1)c1cccc(Cl)c1` [AB24991]: 340 nM; `Cc1ccc2c(c1)CC([n+]1ccc(NCc3ccccc3)cc1)C2=O` (centres unmarked) [AB24906]: 1660 nM; `Cc1ccc(C(=O)C[n+]2ccc3c(c2)ncn3Cc2ccccc2)cc1` [AB24885]: 3130 nM.

Turning to `Cc1ccc(C(=O)C[n+]2ccc3c(ccn3Cc3ccccc3)c2)cc1` [AB24887], the IC50 was determined as 290 nM.

`Cc1ccccc1C(=O)C[n+]1ccc2c(Cc3ccccc3)c[nH]c2c1` [AB24861]: the IC50 stood at 4090 nM.

With `Cn1ccc2c[n+](C3CCc4ccc(C(F)(F)F)cc4C3=O)ccc21` (centres unmarked) [AB27148], the IC50 turned out to be 2810 nM.

On to `O=C(C[n+]1ccc2[nH]c(Cc3ccccc3)cc2c1)c1ccc(C(F)(F)F)cc1` [AB27114], for which the IC50 turned out to be 3930 nM. On the same count and under the same terms, next, `Cc1ccc2c(c1)CCC([n+]1ccc(NCc3ccccc3)cc1)C2=O` (centres unmarked) [AB24917]: 120 nM; `Cc1ccc2c(c1)C(=O)C([n+]1ccc(NCc3ccccc3)cc1)CC2` (centres unmarked) [AB24916]: 380 nM. In the case of `Cc1ccc(Cc2c[nH]c3c[n+](CC(=O)c4ccc(C(F)(F)F)cc4)ccc23)cc1` [AB27118], the IC50 is 1720 nM. Still for that read-out and setting: under `Cc1ccc(C(=O)C[n+]2csc(NCc3ccccc3)c2)cc1` [AB24851] stands 6570 nM; under `Cc1ccc(C(=O)C[n+]2ccc(N(C)Cc3ccccc3)cc2)cc1` [AB24955], 2800 nM; under `Cc1ccc2c(c1)C(=O)C([n+]1ccc3c(c1)c(C)cn3Cc1ccccc1)CC2` (centres unmarked) [AB27176], 40 nM. Same read-out and setting: next, `O=C(C[n+]1ccc2c(Cc3ccccc3)c[nH]c2c1)c1ccc(OC(F)(F)F)cc1` [AB27107]: 2180 nM; `Cc1ccc(C(=O)C[n+]2ccc3c(-c4cccc(C)c4)c[nH]c3c2)cc1` [AB24872]: 1240 nM. The same measure, in the same setting: next, `Cc1cc2c[n+](C3CCc4ccc(Cl)cc4C3=O)ccc2n1Cc1ccccc1` (centres unmarked) [AB27129]: 260 nM; `Cc1ccc(C(=O)C[n+]2ccc(N3CCc4ccccc4C3)cc2)cc1` [AB24957]: 1060 nM. Turning to `Cc1ccc(C(=O)C[n+]2ccc3c(Cc4cccc(Cl)c4)c[nH]c3c2)cc1` [AB24854], the half-inhibitory concentration (IC50) amounted to 1570 nM. The same measure, in the same setting: next, `O=C1c2ccc(C(F)(F)F)cc2CCC1[n+]1ccc2c(c1)CCC(c1ccccc1)N2` (centres unmarked) [AB27104]: 720 nM; `COc1ccc(C(=O)C[n+]2ccc(NCc3ccccc3)nc2)cc1` [AB24963]: 330 nM; `O=C1c2ccc(OC(F)(F)F)cc2CCC1[n+]1ccc(NCc2ccccc2)cc1` (centres unmarked) [AB27111]: 850 nM. Still for that read-out and setting: under `O=C1c2cc(F)ccc2CCC1[n+]1ccc(NCc2ccccc2)cc1` (centres unmarked) [AB24948] stands 100 nM. Turning to `CC(C)(C(=O)c1ccc(Cl)cc1)[n+]1ccc(NCc2ccccc2)cc1` [AB24813], the IC50 was 5930 nM.

As to `Cc1ccc(C(=O)C[n+]2ccc(N3Cc4ccccc4C3)cc2)cc1` [AB24956], the IC50 turned out to be 770 nM. For `O=C(C[n+]1ccc2c(-c3ccccc3)n[nH]c2c1)c1cccc([N+](=O)[O-])c1` [AB24898], the IC50 stood at 6280 nM. On to `Cc1ccc2c(c1)CCC([n+]1ccc(NCc3ccccc3)nc1)C2=O` (centres unmarked) [AB24961], for which the IC50 is 540 nM. For the compound `CC(Nc1cc[n+](CC(=O)c2ccc(Cl)cc2)cc1)c1ccccc1` (centres unmarked) [AB24814], the IC50 was found to be 5540 nM.

In the case of `Cc1ccc2c(c1)C(=O)C([n+]1ccc3c(c1)CCC(c1ccccc1)N3)CC2` (centres unmarked) [AB27133], the concentration for half-maximal inhibition (IC50) came to 340 nM. The same measure, in the same setting: under `O=C1c2cc([N+](=O)[O-])ccc2CCC1[n+]1ccc(NCc2ccccc2)cc1` (centres unmarked) [AB24920] stands 1010 nM; under `Cn1ccc2c[n+](C3CCc4ccc(OC(F)(F)F)cc4C3=O)ccc21` (centres unmarked) [AB27154], 870 nM. On the same count and under the same terms, under `CC(=O)N(Cc1ccccc1)c1cc[n+](CC(=O)c2ccc(C)cc2)cc1` [AB27166] stands 160 nM; under `COc1ccc(C(=O)C[n+]2ccc(NCc3ccccc3)cc2)cc1` [AB24803A], 230 nM; under `Cc1ccc2c(c1)C(=O)C([n+]1ccc3c(ccn3C(C)c3ccccc3)c1)CC2` (centres unmarked) [AB27163], 150 nM. Regarding `COc1cccc2c1CCC([n+]1ccc(NCc3ccccc3)cc1)C2=O` (centres unmarked) [AB24954], the IC50 came to 390 nM. Same read-out and setting: under `O=C(C[n+]1ccc(NCc2ccccc2)nc1)c1cccc(OC(F)(F)F)c1` [AB24967] stands 3880 nM.

For `O=C(C[n+]1ccc(NCc2ccccc2)cc1)c1ccc(Cl)nc1` [AB24817], the IC50 stood at 4610 nM. Same read-out and setting: under `Cc1cccc2c1C(=O)C([n+]1ccc(NCc3ccccc3)cc1)C2` (centres unmarked) [AB24904] stands 3220 nM; under `Cc1ccc2c(c1)CCC([n+]1ccc3c(ccn3C(C)c3ccccc3)c1)C2=O` (centres unmarked) [AB27184], 230 nM; under `O=C(C[n+]1ccc2c(-c3ccccc3)c[nH]c2c1)c1cccc([N+](=O)[O-])c1` [AB24878], 3580 nM. Regarding `Cc1ccc2c(c1)C(=O)C([n+]1ccc(NCc3ccccc3)cc1)C2` (centres unmarked) [AB24905], the IC50 was determined as 2520 nM. Same read-out and setting: next, `Cc1ccc(C(=O)C[n+]2ccc3c(ccn3-c3ccccc3)c2)cc1` [AB24895]: 2090 nM.
